# Where a name gives a salt, the structure may show the parent alone.
# What was measured:
# [1] = system: tumour bearing rats (AH-130 Yoshida ascites hepatoma); assay: Yoshida AH-130 rat ascites hepatoma cachexia model, initial experiment: total food intake; assay type: in vivo; conditions: at day 3, racemic formoterol 10 μg/kg/day, alone or with megestrol acetate 100 mg/kg/day
# Excerpt: This study involves the use of the Yoshida AH-130 rat ascites hepatoma model, which is a particularly suitable model system for studying the mechanisms involved in the establishment of cachexia. Its growth in the host causes rapid and progressive loss of bodyweight and tissue wasting, particularly in skeletal muscle. […] Co-administration of each of these β2 agonists with the progestin, megestrol acetate, is also investigated.
# Wistar rats weighing about 100 g are used (Busquets et al 2004, Cancer Res 64:6725-6731). The animals are maintained on a regular light-dark cycle (light from 08.00 am to 8.00 pm) with free access to food and water. Their diet consists of 54% carbohydrate, 17% protein and 5% fat, and the food intake is measured daily. Rats are given an intraperitoneal inoculum of 10^8 AH-130 Yoshida ascites hepatoma cells obtained from exponential tumours.
# The animals were divided into groups: those receiving the test drugs and those receiving vehicle. Drug administration is by subcutaneous injection. Seven days after tumour transplantation, the animals are weighed and anaesthetised with a ketamine/xylacine mixture. The tumour is harvested from the peritoneal cavity, and its volume and cellularity evaluated. […]
# In an initial experiment, the tumour bearing rats were divided into three groups. […] The rats were monitored over a 3 day period.
# [2] = as reported in U.S. Pat. No. 5,449,694; cited from earlier work
# [3] = system: cancer patients; conditions: cited from earlier work; for Effect on appetite, calorie intake and nutritional status: several clinical trials
smiles,measurement,setting,value
"COc1ccc(CC(C)NCC(O)c2ccc(O)c(NC=O)c2)cc1 (racemic) [racemic formoterol, (±)-N-[2-Hydroxy-5-[1(R*)-hydroxy-2-[1(R*)-methyl-2-(4-methoxyphenyl)ethylamino]ethyl]phenyl]formamide fumarate (2:1) monohydrate]",Total food intake,[1],45±2 g/100 g rat
"C[C@@H](NCCc1ccc(O)cc1)[C@@H](O)c1ccc(O)cc1.Cl (single isomer, unassigned) [(−)-ritodrine]",Relative potency of enantiomers,[2],more potent enantiomer
CC(=O)O[C@]1(C(C)=O)CC[C@H]2[C@@H]3C[C@H](C)C4=CC(=O)CC[C@]4(C)[C@H]3CC[C@@]21C [medroxy-progesterone acetate],"Effect on appetite, calorie intake and nutritional status",[3],"improve appetite, calorie intake and nutritional status"
CC(=O)O[C@]1(C(C)=O)CC[C@H]2[C@@H]3C=C(C)C4=CC(=O)CC[C@]4(C)[C@H]3CC[C@@]21C [megestrol acetate],Cancer patients treated with a weight gain of greater than 5%,"[3]; cancer patients, significant component of the gain due to fat",15%
same,"Effect on appetite, calorie intake and nutritional status",[3],"improve appetite, calorie intake and nutritional status"

# Reference: patent US8653052B2, “Drug combination and its use in the treatment of muscle loss” (Acacia Pharma Limited, priority 2007, dated 2014)
